Consider 1 compound from patent publication US4217268A, “Synthesis of peptides” (priority 1978, dated 1980).

A short description of this experiment: Calcitonin potency assay of the purified product (MRC units per mg). As to conditions: purified freeze-dried product of Example 1.

Bridge positions count the residues as written; N and C are the ends. Peptide text beside a SMILES is read from it.

In the case of `CC(C)C[C@H](NC(=O)[C@H](CCCCN)NC(=O)CNC(=O)[C@H](CC(C)C)NC(=O)[C@@H](NC(=O)[C@@H]1CSSC[C@H](N)C(=O)N[C@@H](CC(N)=O)C(=O)N[C@@H](CC(C)C)C(=O)N[C@@H](CO)C(=O)N[C@@H]([C@@H](C)O)C(=O)N1)C(C)C)C(=O)N[C@@H](CO)C(=O)N[C@@H](CCC(N)=O)C(=O)N[C@@H](CCC(=O)O)C(=O)N[C@@H](CC(C)C)C(=O)N[C@@H](Cc1c[nH]cn1)C(=O)N[C@@H](CCCCN)C(=O)N[C@@H](CC(C)C)C(=O)N[C@@H](CCC(N)=O)C(=O)N[C@H](C(=O)N[C@@H](Cc1ccc(O)cc1)C(=O)N1CCC[C@H]1C(=O)N[C@@H](CCCNC(=N)N)C(=O)N[C@H](C(=O)N[C@@H](CC(N)=O)C(=O)N[C@H](C(=O)NCC(=O)N[C@@H](CO)C(=O)NCC(=O)N[C@H](C(=O)N1CCC[C@H]1C(N)=O)[C@@H](C)O)[C@@H](C)O)[C@@H](C)O)[C@@H](C)O` [des-Ser^2-SCT, des-ser^2 -salmon calcitonin] (H-CNLSTCVLGKLSQELHKLQTYPRTNTGSGTP-NH2; disulfide 1-6), the “biological potency (assayed MRC units per mg)” value is given as 5600 MRC units per mg.
